In ChEMBL document CHEMBL5726857, “Bacterial topoisomerase I inhibitors with antibacterial activity” (2019) one finds IC50 data, which are given here for four compounds.

A short description of experiment [1]: DNA Gyrase Supercoiling Inhibition Assay: DNA gyrase supercoiling assays were carried out by mixing the compounds and the enzyme in a similar manner as above (EcTopI relaxation inhibition assay) but in a gyrase assay buffer (35 mM Tris-HCl, 24 mM KCl, 4 mM MgCl2, 2 mM DTT, 1.75 mM ATP, 5 mM spermidine, 0.1 mg/mL BSA, 6.5% glycerol at pH 7.5), followed by the addition of 300 ng of relaxed covalently closed circular DNA (New England Biolabs, Ipswich, Mass., USA) to a final reaction volume of 20 μL. The samples were incubated at 37° C. for 30 minutes before being terminated by the addition of a buffer containing 5% SDS, 0.25% bromophenol blue, and 25% glycerol. The reactions were then analyzed by agarose gel electrophoresis. Set-up: species or system Escherichia coli.

The nature of experiment [2]: E. coli Topoisomerase I Relaxation Activity Inhibition Assay: The relaxation activity of E. coli topoisomerase I was assayed in a buffer containing 10 mM Tris-HCl, pH 8.0, 50 mM NaCl, 0.1 mg/mL gelatin, and 0.5 mM MgCl2. Half microliter from the appropriate stock solutions of compounds dissolved in the solvent (DMSO) or the solvent alone (control) was mixed with 9.5 μL of the reaction buffer containing 10 ng of enzyme before the addition of 10 μL of reaction buffer containing 200 ng of supercoiled pBAD/Thio plasmid DNA purified by cesium chloride gradient as substrate. Following incubation at 37° C. for 30 min, the reactions were terminated by the addition of 4 μL of a stop buffer (50% glycerol, 50 mM EDTA, and 0.5% (v/v) bromophenol blue), and analyzed by agarose gel electrophoresis. The gels were stained in ethidium bromide and photographed under UV light.

A word on the IC50: it is the concentration that gives 50% inhibition. In turn, `CN1CCN(c2c(F)cc3c(=O)c(C(=O)O)cn4c3c2Oc2cc(N)ccc2-4)CC1` came in with an IC50 in experiment [1] of 23.4 µM. In turn, `Nc1ccc2c(c1)Oc1c(N3CCNCC3)c(F)cc3c(=O)c(C(=O)O)cn-2c13` registered an IC50 in experiment [1] of 11.7 µM. `Nc1ccc2c(c1)Oc1c(N3CCCCC3)c(F)cc3c(=O)c(C(=O)O)cn-2c13`: in experiment [2], the IC50 was found to be 3.9 µM.

`CCCCCNc1c(F)cc2c(=O)c(C(=O)O)cn3c2c1Oc1cc(N)ccc1-3`: in experiment [2], the IC50 was determined as 15.6 µM.
